Source: paper PMC8003485, “Synthesis and Evaluation of Novel α-Aminoamides Containing Benzoheterocyclic Moiety for the Treatment of Pain” (Molecules, 2021)
Where two headings read alike, the source gives them in different places.

Columns and labels:
[1] = molecular target: T1, hNav1.7 (Homo sapiens, UniProt Q15858); assay: Whole-cell patch clamp assay for hNav1.7 inhibition (HEK293 cells stably expressing hNav1.7); format: cell-based; details: for inhibition at 10 µM: HEK293, TTX-sensitive Nav1.7 current, mean ± SD; for IC50: Table 4, TTX-sensitive inactivated Nav1.7 current
T1 construct: expressed in transfected cells; host or cells: HEK293
Experimental: The compounds were tested as hNav1.7 peak current inhibitors at room temperature using human embryonic kidney 293 cells stably expressing hNav1.7. The holding voltage was depolarized to 0 mV from −120 mV for 20 ms and restored to −75 mV for 8 s. After that, the membrane potential was recovered to −120 mV for 20 ms and then depolarized to 0 mV for another 20 ms. Finally, the voltage was renewed to −120 mV for 30 ms. The potential was applied every 20 s. The compounds were administered when the voltage of hNav1.7 recorded by the whole-cell patch clamp was stable. Every compound concentration was tested for 5 min, and all compounds were tested at several concentrations and with multiple cells.

[2] = tested on: ICR (CD−1) male mice; assay: Formalin test (mouse, phase II paw licking); format: in vivo; details: 10 mg/kg; for inhibition in vivo at 10 mg/kg: Mus musculus, ip, read-out: % Analgesia (formalin test); for Percentage of analgesia relative to ralfinamide (times higher): formalin test
Experimental: The formalin test was carried out using the method described previously. During the formalin test, Institute of Cancer Research (ICR; CD−1) male mice (weight: 22–25 g) were acclimated to the environment for two days before the experiment with food and water available freely. The mice were housed under a 12 h/12 h light/dark cycle. The temperature and humidity of the room were kept at 25 ± 2 °C and 50–60%, respectively. The mice were divided into a vehicle group, a ralfinamide group, and test compound groups randomly, with eight mice in each group. All compounds were dissolved in saline and administered by intraperitoneal injection (n = 8) or intragastric administration by mouth (n = 8) at 10 mg/kg. The vehicle group was given the same volume of saline.
After administration, the mice were placed into polyvinyl chloride (PVC) observation chambers. Thirty minutes later, the mice were injected subcutaneously with 20 μL of 2.7% formalin solution into the surface of their right hind paw and were returned to their PVC chambers immediately to observe their behavior. The cumulative time each mouse licked its right hind paw during phase II (15–30 min) was recorded as its painful time in phase II. The analgesic effects of the compounds were presented as the mean ± standard deviation. The data were analyzed by SPSS using one-way analysis of variance followed by Dunnett’s test. The analgesic activity of the test compounds was calculated according to the following formula. %Analgesia=Average Time (Vehicle)−Average Time (Drug)/Average Time (Vehicle)× 100%

[3] = tested on: ICR (CD−1) male mice; assay: Formalin test (mouse, phase II paw licking); format: in vivo; details: 20 mg/kg, dose-effect relationship assay
[4] = molecular target: T2, hNav1.5 (Homo sapiens, UniProt Q14524); assay: Assay for hNav1.5 inhibition (HEK293 cells stably expressing hNav1.5); format: cell-based; details: for inhibition at 10 µM: HEK293, read-out: Inhibitory Effect to Nav1.5; for Inhibitory activity against Nav1.5 (in words): similarly to ralfinamide, low selectivity over the cardiac sodium channel
T2 construct: expressed in transfected cells; host or cells: HEK293
Experimental: The inhibition of the compounds to hNav1.5 peak current was performed at room temperature using HEK293 cells that could express hNav1.5 stably. The holding voltage of the membrane was transferred to 0 mV from −120 mV for 50 ms and then restored to −50 mV for 8 s. After that, the membrane potential was renewed to −120 mV for 20 ms, followed by a depolarization to 0 mV for 50 ms. At last, the potential was recovered to the holding voltage −120 mV for 30 ms. This progress was performed every 20 s. The compounds were administrated when the voltage of hNav1.5 was stable. Every concentration was tested for 5 min and all compounds were tested at several concentrations and with multiple cells.

[5] = tested on: ICR (CD-1) male mice; assay: Acetic acid-induced writhing test; format: in vivo; details: 10 mg/kg, i.p.; writhes in 20 min; mean ± SD, n = 6
Experimental: The writhing test was performed according to a previously reported method. The ICR (CD-1) male mice (weight: 22–25 g) were treated as for the formalin test in the same environment. The mice were divided into a vehicle group, a ralfinamide group, and test compound groups randomly, with six mice in each group. All compounds were dissolved in saline and administered by intraperitoneal injection at 10 mg/kg. The vehicle group was given the same volume of saline. After administration, the mice were placed into PVC chambers. Thirty minutes later, the mice were injected with 1% acetic acid solution at 10 mL/kg by intraperitoneal injection and placed into the observation chambers immediately to record the number of writhes each mouse had in 20 min. The results were presented as the mean ± standard deviation. The analytical method was the same as that for the formalin test, and the analgesic activity of each compound was calculated by the following formula. %Analgesia=Average Number (Vehicle)−Average Number (Drug)/Average Number (Vehicle)× 100%

[6] = molecular target: T3, hNav1.8 (Homo sapiens, UniProt Q9Y5Y9); assay: Whole-cell patch clamp assay for hNav1.8 inhibition (CHO cells stably expressing hNav1.8); format: cell-based; details: Nav1.8 inactivated state Na+ currents
T3 construct: expressed in transfected cells; host or cells: CHO
Experimental: The whole-cell patch clamp assay assessing the hNav1.8 current was carried out at room temperature with Chinese hamster ovary cells stably expressing hNav1.8. The holding voltage of the membrane was transferred to 0 mV from −120 mV for 50 ms and then restored to −50 mV for 8 s. After that, the membrane potential was renewed to −120 mV for 20 ms, which was followed by a depolarization to 0 mV for 50 ms. Finally, the potential was recovered to the holding voltage of −120 mV for 30 ms. This process was performed every 20 s. The compounds were administered when the voltage of hNav1.8 was stable. Every compound concentration was tested for 5 min, and all compounds were tested at several concentrations and with multiple cells.

[7] = tested on: mouse; assay: Mouse tail flick assay; format: in vivo; details: even at a high dose of 100 mg/kg; data not shown
[8] = tested on: mouse; assay: Mouse hotplate assay; format: in vivo; details: even at a high dose of 100 mg/kg; data not shown
[9] = read-out: Inhibitory Effect against Nav1.7, Activated State (TP−1)
[10] = read-out: Inhibitory Effect against Nav1.7, Inactivated State (TP−2)
[11] = i.p., phase II (15–30 min), mean ± SD, n = 8

T3 sequence (Q9Y5Y9 whole entry): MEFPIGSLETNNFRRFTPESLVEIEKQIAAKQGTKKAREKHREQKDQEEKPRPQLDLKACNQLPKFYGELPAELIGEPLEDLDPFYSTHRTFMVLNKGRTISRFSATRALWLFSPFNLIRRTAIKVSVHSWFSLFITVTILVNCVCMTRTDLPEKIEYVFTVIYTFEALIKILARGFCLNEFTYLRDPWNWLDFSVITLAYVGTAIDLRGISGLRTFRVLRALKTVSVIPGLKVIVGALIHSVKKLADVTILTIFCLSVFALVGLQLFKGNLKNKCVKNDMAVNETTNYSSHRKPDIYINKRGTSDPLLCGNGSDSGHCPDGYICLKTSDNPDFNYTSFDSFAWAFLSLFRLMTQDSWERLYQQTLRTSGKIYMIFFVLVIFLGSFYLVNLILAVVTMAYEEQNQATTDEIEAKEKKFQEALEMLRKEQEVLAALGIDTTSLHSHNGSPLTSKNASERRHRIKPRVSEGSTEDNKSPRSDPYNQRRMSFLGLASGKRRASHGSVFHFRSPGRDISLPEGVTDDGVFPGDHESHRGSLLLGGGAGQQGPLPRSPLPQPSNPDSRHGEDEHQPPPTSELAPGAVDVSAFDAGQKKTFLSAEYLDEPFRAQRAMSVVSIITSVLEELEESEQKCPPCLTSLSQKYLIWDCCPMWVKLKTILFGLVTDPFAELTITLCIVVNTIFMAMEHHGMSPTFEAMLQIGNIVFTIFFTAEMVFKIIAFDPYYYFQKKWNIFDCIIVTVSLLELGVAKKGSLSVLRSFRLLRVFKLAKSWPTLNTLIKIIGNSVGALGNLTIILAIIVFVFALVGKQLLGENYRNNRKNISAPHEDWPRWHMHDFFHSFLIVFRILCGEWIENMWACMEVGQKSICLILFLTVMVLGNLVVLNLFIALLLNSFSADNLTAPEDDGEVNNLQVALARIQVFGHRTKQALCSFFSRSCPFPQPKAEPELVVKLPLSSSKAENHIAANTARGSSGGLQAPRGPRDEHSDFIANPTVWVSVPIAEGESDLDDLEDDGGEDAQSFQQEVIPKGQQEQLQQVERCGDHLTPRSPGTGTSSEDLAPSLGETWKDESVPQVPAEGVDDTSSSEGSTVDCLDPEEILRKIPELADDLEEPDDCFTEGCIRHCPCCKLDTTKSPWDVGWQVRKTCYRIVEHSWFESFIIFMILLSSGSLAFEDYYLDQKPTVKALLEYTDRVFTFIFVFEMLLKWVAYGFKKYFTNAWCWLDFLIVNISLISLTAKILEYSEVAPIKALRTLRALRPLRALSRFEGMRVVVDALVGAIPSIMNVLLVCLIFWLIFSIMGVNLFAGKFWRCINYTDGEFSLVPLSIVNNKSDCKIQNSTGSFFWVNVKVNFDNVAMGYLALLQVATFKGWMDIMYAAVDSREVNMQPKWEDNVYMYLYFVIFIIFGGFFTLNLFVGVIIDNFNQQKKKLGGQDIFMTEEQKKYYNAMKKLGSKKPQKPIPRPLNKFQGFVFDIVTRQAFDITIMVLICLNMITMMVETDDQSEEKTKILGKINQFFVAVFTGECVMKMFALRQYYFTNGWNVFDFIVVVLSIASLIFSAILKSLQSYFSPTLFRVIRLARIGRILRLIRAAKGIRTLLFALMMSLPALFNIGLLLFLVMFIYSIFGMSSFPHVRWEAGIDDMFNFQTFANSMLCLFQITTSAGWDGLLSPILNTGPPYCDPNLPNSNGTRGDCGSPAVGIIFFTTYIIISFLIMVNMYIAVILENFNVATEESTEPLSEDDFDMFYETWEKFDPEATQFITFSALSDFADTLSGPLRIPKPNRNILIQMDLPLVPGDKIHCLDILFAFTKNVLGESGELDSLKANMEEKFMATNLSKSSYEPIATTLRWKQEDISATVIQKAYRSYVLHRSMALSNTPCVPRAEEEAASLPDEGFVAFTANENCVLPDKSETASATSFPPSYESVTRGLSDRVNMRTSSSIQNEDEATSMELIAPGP
T2 sequence (Q14524 whole entry): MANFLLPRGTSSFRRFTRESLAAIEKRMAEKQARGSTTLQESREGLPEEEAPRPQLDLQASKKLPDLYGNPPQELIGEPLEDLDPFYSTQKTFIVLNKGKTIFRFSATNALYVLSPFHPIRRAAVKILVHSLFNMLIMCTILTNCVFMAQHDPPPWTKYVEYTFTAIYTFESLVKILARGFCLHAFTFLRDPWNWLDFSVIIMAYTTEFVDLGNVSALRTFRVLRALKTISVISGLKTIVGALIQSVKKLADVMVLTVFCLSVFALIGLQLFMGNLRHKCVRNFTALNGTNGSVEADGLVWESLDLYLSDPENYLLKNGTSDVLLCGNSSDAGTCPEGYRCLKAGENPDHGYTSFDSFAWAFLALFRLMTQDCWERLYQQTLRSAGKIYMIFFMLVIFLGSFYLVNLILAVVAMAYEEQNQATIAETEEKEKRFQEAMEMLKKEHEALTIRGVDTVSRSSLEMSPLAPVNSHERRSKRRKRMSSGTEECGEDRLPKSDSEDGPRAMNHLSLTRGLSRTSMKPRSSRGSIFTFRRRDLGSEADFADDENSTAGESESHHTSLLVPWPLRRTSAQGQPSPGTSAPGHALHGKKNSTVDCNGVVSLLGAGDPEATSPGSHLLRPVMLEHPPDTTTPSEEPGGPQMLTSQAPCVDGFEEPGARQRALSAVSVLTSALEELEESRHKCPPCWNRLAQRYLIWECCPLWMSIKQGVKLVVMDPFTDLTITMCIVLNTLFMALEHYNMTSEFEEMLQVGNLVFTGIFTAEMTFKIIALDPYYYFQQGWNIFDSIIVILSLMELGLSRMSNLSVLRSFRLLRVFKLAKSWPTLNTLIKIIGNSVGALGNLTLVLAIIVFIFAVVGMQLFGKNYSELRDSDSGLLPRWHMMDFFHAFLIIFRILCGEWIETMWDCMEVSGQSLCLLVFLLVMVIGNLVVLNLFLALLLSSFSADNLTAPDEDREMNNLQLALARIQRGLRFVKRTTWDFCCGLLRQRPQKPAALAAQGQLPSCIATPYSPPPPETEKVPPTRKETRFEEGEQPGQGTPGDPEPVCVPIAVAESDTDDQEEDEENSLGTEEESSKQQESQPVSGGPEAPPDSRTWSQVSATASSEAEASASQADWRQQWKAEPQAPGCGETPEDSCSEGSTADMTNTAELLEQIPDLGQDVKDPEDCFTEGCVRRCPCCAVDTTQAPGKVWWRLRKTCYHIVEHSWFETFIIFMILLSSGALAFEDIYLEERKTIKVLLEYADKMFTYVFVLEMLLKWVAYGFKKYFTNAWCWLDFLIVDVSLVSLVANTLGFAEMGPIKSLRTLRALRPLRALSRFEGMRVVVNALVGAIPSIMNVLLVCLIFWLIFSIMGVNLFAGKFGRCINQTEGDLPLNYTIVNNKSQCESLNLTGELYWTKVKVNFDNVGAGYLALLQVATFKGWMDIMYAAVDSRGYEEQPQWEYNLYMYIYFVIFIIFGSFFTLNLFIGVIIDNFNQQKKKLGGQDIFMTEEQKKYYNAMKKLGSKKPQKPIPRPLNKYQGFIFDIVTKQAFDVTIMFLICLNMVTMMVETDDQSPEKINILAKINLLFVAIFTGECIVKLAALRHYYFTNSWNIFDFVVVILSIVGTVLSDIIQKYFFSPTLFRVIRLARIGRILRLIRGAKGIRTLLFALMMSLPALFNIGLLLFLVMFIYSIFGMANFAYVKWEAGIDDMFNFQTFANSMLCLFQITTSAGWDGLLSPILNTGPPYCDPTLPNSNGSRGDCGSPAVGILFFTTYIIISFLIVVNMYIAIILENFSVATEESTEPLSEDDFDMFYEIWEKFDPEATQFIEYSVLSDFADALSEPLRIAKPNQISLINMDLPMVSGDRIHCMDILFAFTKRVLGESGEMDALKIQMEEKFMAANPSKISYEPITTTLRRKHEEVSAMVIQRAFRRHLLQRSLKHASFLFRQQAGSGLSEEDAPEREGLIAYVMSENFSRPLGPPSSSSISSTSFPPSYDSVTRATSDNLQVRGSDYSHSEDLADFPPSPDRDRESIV

Row | SMILES | inhibition at 10 µM [1, 9] [%] | inhibition at 10 µM [1, 10] [%] | inhibition in vivo at 10 mg/kg [2, 11] [%] | % Analgesia (acetic acid-induced writhing test) [5] | other results
1 | C[C@H](NCc1cccc(COc2cccc3ncccc23)c1)C(N)=O [Compound 7a, (S)-2-((3-((Quinolin-5-yloxy)methyl)benzyl)amino)propanamide] | 6.4 ± 4.9 | 23.8 ± 3.6 | 48 ± 27.8 | – | –
2 | C[C@H](NCc1ccc(COc2cccc3cccnc23)cc1)C(N)=O [Compound 7h, (S)-2-((4-((Quinolin-8-yloxy)methyl)benzyl)amino)propanamide] | 9.1 ± 4.3 | 38.6 ± 4.7 | 57.2 ± 30.1 | – | –
3 | C[C@H](NCc1cccc(COc2ccc3cccnc3c2)c1)C(N)=O [Compound 7e, (S)-2-((3-((Quinolin-7-yloxy)methyl)benzyl)amino)propanamide] | 3.6 ± 3.3 | 47.7 ± 2.7 | 30.6 ± 14.7 | – | –
4 | C[C@H](NCc1ccc(COc2cccc3ncccc23)cc1)C(N)=O [Compound 7b, (S)-2-((4-((Quinolin-5-yloxy)methyl)benzyl)amino)propanamide] | 14.7 ± 5.4 | 29.8 ± 0.6 | 37.2 ± 25.3 | – | –
5 | C[C@H](NCc1ccc(OCc2ccccc2F)cc1)C(N)=O [Ralfinamide, reference compound] | 8.1 ± 3.8 | 57.7 ± 3.4 | 42.4 | 44.4 ± 15.5 ^☆ % | Analgesic response (formalin test) [3]: 59.7%; IC50 [1]: 6.6 ± 1.6 µM; inhibition at 10 µM [4]: 64.6 ± 3.2%; IC50 [6]: 36.3 ± 8.9 µM; % Analgesia (formalin test) [2, 11]: 42.4 ± 23.3 %
6 | C[C@H](NCc1ccc(COc2ccc3ccoc3c2)cc1)C(N)=O [Compound 6f, (S)-2-((4-((Benzofuran-6-yloxy)methyl)benzyl)amino)propanamide] | 12.4 ± 2.9 | 50.4 ± 3.6 | 67.8 ± 22.7 | 63.2 ± 13.3 ^☆ @ % | IC50 [1]: 8.1 ± 1.1 µM; inhibition at 10 µM [4]: 48 ± 0.1%; Inhibitory activity against Nav1.5 (in words) [4]: moderate inhibitory activity; Analgesic effect in tail flick assay (in words) [7]: no analgesic effect; IC50 [6]: 4.8 ± 0.7 µM; Analgesic effect in mouse hotplate assay (in words) [8]: no analgesic effect; Percentage of analgesia relative to ralfinamide (times higher) [2]: 1.5–2 times
7 | C[C@H](NCc1ccc(COc2ccc3cccnc3c2)cc1)C(N)=O [Compound 7f, (S)-2-((4-((Quinolin-7-yloxy)methyl)benzyl)amino)propanamide] | -1.8 ± 3.2 | 31.6 ± 3.4 | 15.9 ± 17.6 | – | –
8 | C[C@H](NCc1cccc(COc2ccc3[nH]cnc3c2)c1)C(N)=O [Compound 5c, (S)-2-((3-(((1H-Benzo[d]imidazol-5-yl)oxy)methyl)benzyl)amino)propanamide] | 1.7 ± 0.3 | 2.6 ± 0.8 | 48.8 ± 15.5 | – | –
9 | C[C@H](NCc1ccc(COc2cccc3occc23)cc1)C(N)=O [Compound 6b, (S)-2-((4-((Benzofuran-4-yloxy)methyl)benzyl)amino)propanamide] | 11.8 ± 0.3 | 55.5 ± 2.5 | 48.4 ± 26.4 | 48.0 ± 5.8 ^☆ % | –
10 | C[C@H](NCc1cccc(COc2ccc3occc3c2)c1)C(N)=O [Compound 6c, (S)-2-((3-((Benzofuran-5-yloxy)methyl)benzyl)amino)propanamide] | 12.2 ± 0.7 | 48.1 ± 4.2 | 30.2 ± 19.8 | 11.2 ± 7.6% | –
11 | C[C@H](NCc1ccc(COc2ccc3ncccc3c2)cc1)C(N)=O [Compound 7d, (S)-2-((4-((Quinolin-6-yloxy)methyl)benzyl)amino)propanamide] | 3.7 ± 0.5 | 13.5 ± 0.4 | 20.9 ± 18.7 | – | –
12 | C[C@H](NCc1cccc(COc2ccc3ccoc3c2)c1)C(N)=O [Compound 6e, (S)-2-((3-((Benzofuran-6-yloxy)methyl)benzyl)amino)propanamide] | 11.4 ± 1.6 | 58.5 ± 1.8 | 71.7 ± 22 | 45.7 ± 17.2 ^☆ % | IC50 [1]: 9.4 ± 2.7 µM; inhibition at 10 µM [4]: 70.1 ± 2.2%; Inhibitory activity against Nav1.5 (in words) [4]: moderate inhibitory activity; Analgesic effect in tail flick assay (in words) [7]: no analgesic effect; IC50 [6]: 10.1 ± 1.9 µM; Analgesic effect in mouse hotplate assay (in words) [8]: no analgesic effect; Percentage of analgesia relative to ralfinamide (times higher) [2]: 1.5–2 times
13 | C[C@H](NCc1ccc(COc2ccc3[nH]cnc3c2)cc1)C(N)=O [Compound 5d, (S)-2-((4-(((1H-Benzo[d]imidazol-5-yl)oxy)methyl)benzyl)amino)propanamide] | 0.7 ± 0.8 | 1.5 ± 0.9 | 60.8 ± 32.2 | – | –
14 | C[C@H](NCc1cccc(COc2cccc3[nH]cnc23)c1)C(N)=O [Compound 5a, (S)-2-((3-(((1H-Benzo[d]imidazol-4-yl)oxy)methyl)benzyl)amino)propanamide] | 5.1 ± 1.2 | 10.7 ± 0.4 | 51 ± 21.6 | – | –
15 | C[C@H](NCc1ccc(COc2cccc3[nH]cnc23)cc1)C(N)=O [Compound 5b, (S)-2-((4-(((1H-Benzo[d]imidazol-4-yl)oxy)methyl)benzyl)amino)propanamide] | 3.7 ± 2 | 1.4 ± 0.6 | 27.4 ± 19.2 | – | –
16 | C[C@H](NCc1cccc(COc2cccc3cccnc23)c1)C(N)=O [Compound 7g, (S)-2-((3-((Quinolin-8-yloxy)methyl)benzyl)amino)propanamide] | 14.7 ± 0.2 | 46 ± 0.1 | 35.6 ± 26.1 | – | –
17 | C[C@H](NCc1cccc(COc2ccc3ncccc3c2)c1)C(N)=O [Compound 7c, (S)-2-((3-((Quinolin-6-yloxy)methyl)benzyl)amino)propanamide] | 8.6 ± 1.2 | 30 ± 2.9 | 81.5 ± 14.8 | – | –
18 | C[C@H](NCc1ccc(COc2ccc3occc3c2)cc1)C(N)=O [Compound 6d, (S)-2-((4-((Benzofuran-5-yloxy)methyl)benzyl)amino)propanamide] | 10.9 ± 1.1 | 31.8 ± 0.3 | 42.2 ± 16.3 | 28.9 ± 8.5 % | –
